Where two headings read alike, the source gives them in different places.
Experiments:
[1] = target: KRAS WT (Homo sapiens, UniProt P01116+P62937); assay: Disruption of BRAF RBD interaction with Ras (FRET / MOA assay, with Cyclophilin A); type: biochemical
Outline: (§1)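 Biochemical TR-FRET disruption assay: nucleotide-loaded K-Ras with Cyclophilin A and a BRAF RBD construct, compound titrated over 10 points from 30 μM (final).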

[2] = target: KRAS G12S (Homo sapiens, UniProt P01116+P62937, G12S); assay: as above; type: biochemical
Outline: as §1

[3] = target: KRAS G12D (Homo sapiens, UniProt P01116+P62937, G12D); assay: as above; type: biochemical
Outline: as §1

[4] = target: KRAS G13D (Homo sapiens, UniProt P01116+P62937, G13D); assay: as above; type: biochemical
Outline: as §1

[5] = target: KRAS G12C (Homo sapiens, UniProt P01116+P62937, G12C); assay: as above; type: biochemical
Outline: as §1

[6] = target: NRAS G12C (Homo sapiens, UniProt P01111+P62937, G12C); assay: as above; type: biochemical
[7] = target: KRAS G12V (Homo sapiens, UniProt P01116+P62937, G12V); assay: as above; type: biochemical
Outline: as §1

[8] = target: KRAS G13C (Homo sapiens, UniProt P01116+P62937, G13C); assay: as above; type: biochemical
Outline: as §1

[9] = tested on: NCI-H358 (K-Ras G12C); assay: CellTiter-Glo cell viability assay, 5-day treatment; type: cell-based; conditions: Homo sapiens, NCI-H358, 120 h, 5-day treatment; read-out: H358 Cell Viability assay data (K-Ras G12C, IC50)
Outline: (§2)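 Viability is read as luminescence on day 5 after direct compound addition to plated cells, following about 30 minutes' room-temperature equilibration. Each signal is scaled to mean DMSO as 100%.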

[10] = tested on: Capan-1 (K-Ras G12V); assay: as above; type: cell-based; conditions: Homo sapiens, CAPAN-1, 120 h, 5-day treatment; read-out: Capan-1 Cell Viability assay data (K-Ras G12V, IC50)
Outline: as §2

[11] = KRAS WT, read-out: KRAS WT FRET data IC50
[12] = read-out: KRAS G12S FRET data, IC50
[13] = read-out: KRAS G12D FRET data, IC50
[14] = KRAS G13D, read-out: KRAS G13D FRET data IC50
[15] = read-out: KRAS G12C FRET data, IC50
[16] = NRAS G12C, read-out: NRAS G12C FRET data IC50
[17] = KRAS G12V, read-out: KRAS G12V FRET data IC50
[18] = read-out: KRAS G13C FRET data, IC50

Sequence of KRAS G13D (P01116 1-169 isoform P01116-2 G13D limits assumed): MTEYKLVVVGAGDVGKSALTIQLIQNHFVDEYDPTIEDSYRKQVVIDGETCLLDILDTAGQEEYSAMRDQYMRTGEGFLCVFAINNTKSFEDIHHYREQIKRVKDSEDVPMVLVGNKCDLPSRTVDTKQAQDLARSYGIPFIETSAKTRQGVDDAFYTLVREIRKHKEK
Sequence of KRAS G13D (P62937 whole entry): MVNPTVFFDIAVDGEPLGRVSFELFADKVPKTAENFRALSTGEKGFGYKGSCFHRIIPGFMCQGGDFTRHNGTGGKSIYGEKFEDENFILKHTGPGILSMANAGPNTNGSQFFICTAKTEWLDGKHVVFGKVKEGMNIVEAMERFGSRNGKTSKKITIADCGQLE
Sequence of KRAS G12S (P01116 1-169 isoform P01116-2 G12S limits assumed): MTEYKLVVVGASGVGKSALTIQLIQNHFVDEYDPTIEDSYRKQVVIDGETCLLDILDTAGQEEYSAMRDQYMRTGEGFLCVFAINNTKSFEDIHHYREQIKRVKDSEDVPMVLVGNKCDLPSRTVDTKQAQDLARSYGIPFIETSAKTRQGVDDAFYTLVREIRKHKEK
Sequence of KRAS G12S (P62937 whole entry): as the sequence (P62937 whole entry) above
Sequence of NRAS G12C (P01111 whole entry G12C): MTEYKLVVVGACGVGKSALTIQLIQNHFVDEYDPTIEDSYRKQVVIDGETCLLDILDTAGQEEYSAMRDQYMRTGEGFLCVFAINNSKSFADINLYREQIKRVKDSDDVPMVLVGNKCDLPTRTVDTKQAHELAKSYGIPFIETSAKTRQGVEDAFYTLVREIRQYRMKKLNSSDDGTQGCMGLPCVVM
Sequence of NRAS G12C (P62937 whole entry): as the sequence (P62937 whole entry) above
Sequence of KRAS G12D (P01116 1-169 isoform P01116-2 G12D limits assumed): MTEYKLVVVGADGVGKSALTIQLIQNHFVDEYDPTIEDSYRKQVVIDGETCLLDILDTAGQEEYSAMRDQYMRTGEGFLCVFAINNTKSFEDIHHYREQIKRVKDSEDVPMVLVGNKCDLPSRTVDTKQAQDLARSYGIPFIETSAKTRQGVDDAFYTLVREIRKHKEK
Sequence of KRAS G12D (P62937 whole entry): as the sequence (P62937 whole entry) above
Sequence of KRAS G12V (P01116 1-169 isoform P01116-2 G12V limits assumed): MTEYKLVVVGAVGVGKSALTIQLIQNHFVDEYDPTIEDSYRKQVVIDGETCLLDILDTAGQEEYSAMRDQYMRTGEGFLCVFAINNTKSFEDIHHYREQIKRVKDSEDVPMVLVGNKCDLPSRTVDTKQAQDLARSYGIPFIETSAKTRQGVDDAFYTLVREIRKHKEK
Sequence of KRAS G12V (P62937 whole entry): as the sequence (P62937 whole entry) above
Sequence of KRAS G13C (P01116 1-169 isoform P01116-2 G13C): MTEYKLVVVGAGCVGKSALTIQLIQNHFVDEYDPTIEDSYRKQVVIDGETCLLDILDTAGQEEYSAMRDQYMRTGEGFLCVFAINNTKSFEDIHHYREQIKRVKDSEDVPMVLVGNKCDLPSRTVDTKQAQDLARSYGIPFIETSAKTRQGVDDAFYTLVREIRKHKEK
Sequence of KRAS G13C (P62937 whole entry): as the sequence (P62937 whole entry) above
Sequence of KRAS WT (P01116 1-169 isoform P01116-2 limits assumed): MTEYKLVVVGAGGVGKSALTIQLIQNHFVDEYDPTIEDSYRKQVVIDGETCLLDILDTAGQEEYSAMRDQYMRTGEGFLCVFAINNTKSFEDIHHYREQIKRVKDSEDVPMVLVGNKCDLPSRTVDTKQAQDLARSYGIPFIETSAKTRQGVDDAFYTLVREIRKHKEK
Sequence of KRAS WT (P62937 whole entry): as the sequence (P62937 whole entry) above
Sequence of KRAS G12C (P01116 1-169 isoform P01116-2 G12C): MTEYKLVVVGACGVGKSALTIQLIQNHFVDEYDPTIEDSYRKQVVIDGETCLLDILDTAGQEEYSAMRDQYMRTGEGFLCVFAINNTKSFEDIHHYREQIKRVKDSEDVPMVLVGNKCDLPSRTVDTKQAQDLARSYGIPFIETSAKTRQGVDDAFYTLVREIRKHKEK
Sequence of KRAS G12C (P62937 whole entry): as the sequence (P62937 whole entry) above

SMILES | IC50 [1, 11] [nM] | IC50 [2, 12] [nM] | IC50 [3, 13] [nM] | IC50 [4, 14] [nM] | IC50 [5, 15] [nM] | IC50 [6, 16] [nM] | IC50 [7, 17] [nM] | IC50 [8, 18] [nM] | IC50 [9] [nM] | IC50 [10] [nM] | IC50 ([1]; KRAS WT FRET data IC50, KRAS WT) [nM] | IC50 ([2]; KRAS G12S FRET data, IC50) [nM] | IC50 ([3]; KRAS G12D FRET data, IC50) [nM] | IC50 ([4]; KRAS G13D FRET data IC50, KRAS G13D) [nM] | IC50 ([5]; KRAS G12C FRET data, IC50) [nM] | IC50 ([6]; NRAS G12C FRET data IC50, NRAS G12C) [nM] | IC50 ([7]; KRAS G12V FRET data IC50, KRAS G12V) [nM] | IC50 ([8]; KRAS G13C FRET data, IC50) [nM]
CCn1c(-c2cccnc2[C@H](C)OC)c2c3cc(ccc31)-c1cc(O)cc(c1)C[C@H](NC(=O)[C@H](C(C)C)N(C)C(=O)[C@@H]1CC1(C)C)C(=O)N1CCC[C@H](N1)C(=O)OCC(C)(C)C2 [Example A157] | 10 to 100 | 100 to 1000 | 100 to 1000 | 100 to 1000 | 10 to 100 | 10 to 100 | 100 to 1000 | 100 to 1000 | 100 to 1000 | 100 to 1000 |  |  |  |  |  |  |  | 
CCn1c(-c2cccnc2[C@H](C)OC)c2c3cc(ccc31)-c1cc(O)cc(c1)C[C@H](NC(=O)[C@H](C(C)C)N(C)C(=O)[C@H]1CC1(F)F)C(=O)N1CCC[C@H](N1)C(=O)OCC(C)(C)C2 [Example A166] | 10 to 100 | 100 to 1000 | 100 to 1000 | 100 to 1000 | 10 to 100 | 10 to 100 | 100 to 1000 | 10 to 100 | 100 to 1000 | 100 to 1000 |  |  |  |  |  |  |  | 
CCn1c(-c2cccnc2[C@H](C)OC)c2c3cc(ccc31)-c1cc(O)cc(c1)C[C@H](NC(=O)[C@H](C(C)C)N(C)C(=O)[C@@H]1CC1(F)F)C(=O)N1CCC[C@H](N1)C(=O)OCC(C)(C)C2 [Example A167] |  |  |  |  |  |  |  |  | 100 to 1000 | 100 to 1000 | 100 to 1000 | 100 to 1000 | 100 to 1000 | 100 to 1000 | 100 to 1000 | 100 to 1000 | 100 to 1000 | 100 to 1000
CCn1c(-c2cccnc2[C@H](C)OC)c2c3cc(ccc31)-c1cc(O)cc(c1)C[C@H](NC(=O)[C@H](C(C)C)N(C)C(=O)C1(N)CC1)C(=O)N1CCC[C@H](N1)C(=O)OCC(C)(C)C2 [Example A168] | 10 to 100 | 100 to 1000 | 100 to 1000 | 100 to 1000 | 10 to 100 | 10 to 100 | 100 to 1000 | 10 to 100 | 100 to 1000 | 100 to 1000 |  |  |  |  |  |  |  | 
CCn1c(-c2cccnc2[C@H](C)OC)c2c3cc(ccc31)-c1cc(O)cc(c1)C[C@H](NC(=O)[C@H](C(C)C)N(C)C(=O)N1CC(N(C)C)C1)C(=O)N1CCC[C@H](N1)C(=O)OCC(C)(C)C2 [Example A171] | 100 to 1000 | 100 to 1000 | 100 to 1000 | 100 to 1000 | 100 to 1000 | 100 to 1000 | 100 to 1000 | 10 to 100 | 100 to 1000 | 100 to 1000 |  |  |  |  |  |  |  | 
CCn1c(-c2cccnc2[C@H](C)OC)c2c3cc(ccc31)-c1cc(O)cc(c1)C[C@H](NC(=O)C(C1CC1)C1CC1)C(=O)N1CCC[C@H](N1)C(=O)OCC(C)(C)C2 [Example A184] | 100 to 1000 | 100 to 1000 | 1000 to 10000 | 100 to 1000 | 100 to 1000 | 100 to 1000 | 100 to 1000 | 10 to 100 | 100 to 1000 | 1000 to 10000 |  |  |  |  |  |  |  | 
CCn1c(-c2cccnc2[C@H](C)OC)c2c3cc(ccc31)-c1cc(O)cc(c1)C[C@H](NC(=O)[C@H](C(C)C)N(C)C(=O)O[C@H]1CCOC1)C(=O)N1CCC[C@H](N1)C(=O)OCC(C)(C)C2 [Example A209] | 100 to 1000 | 100 to 1000 | 100 to 1000 | 100 to 1000 | 100 to 1000 | 100 to 1000 | 100 to 1000 | 100 to 1000 | 100 to 1000 | 100 to 1000 |  |  |  |  |  |  |  | 

Reference: patent US20230233569A1 (Revolution Medicines, Inc., priority 2020, published 2023)
